The values below come from patent publication US7115556B2, “Use of anti-prolactin agents to treat proliferative conditions” (Greenville Hospital System, priority 1998, dated 2006).

Experiment [1] concerns T47-D human breast cancer cells. Kind of experiment: 96 well cell proliferation assay with conditioned media (MTS-PMS). Format: cell-based. On the procedure:
HPRLG129R Conditioned Media. The assay conditions were modified from that described by Ginsburg and Vonderharr (1995, Cancer Res. 55:2591–2595). T47-D cells were trypsinized and passed into 96 well plates in RPMI-1640 media containing 1% DCC-FCS in a volume of 100 μl/well. The optimal cell number/well for each cell line was pre-determined after titration assay. For T47-D cells, 15,000 cells/well were plated. The cells were allowed to settle and adhere overnight (12–18 hours) and subsequently various concentrations of either hPRL, hRPL-G129R, E2 or 4-OH-Tamoxifen in a total volume of 100 μl of culture media were added. Purified hPRL (kindly provided by Dr. Parlow, National Hormone & Pituitary Program, NIH) was used as a positive control for hPRL produced from stable L cells. Cells were incubated for an additional 96 hours at 37° C. in a humidified 5% CO2 incubator. After incubation, MTS-PMS solution (Cell Titer 96 Aqueous kit, Promega Corp.) was added to each well, following the manufacturer's instructions. Plates were read at 490 nm using a BIO-RAD benchmark microplate reader. The experiments were carried out in triplicates and repeated three to six times for each cell line.

For experiment [2], the system named is T-47D human breast cancer cells. Kind of experiment: TUNEL assay, T-47D. Format: cell-based. The procedure: (§1) Cell Culture. T-47D cells obtained from ATCC were grown in RPMI 1640 (phenol red free), supplemented with 10% FBS (GIBCO BRL). BT-474 cells were grown in RPMI 1640 medium (phenol red free) supplemented with 10% FBS and ATCC recommended supplements. MCF-7 cells were grown in DMEM medium (phenol red free), supplemented with 10% FBS. The cells were grown at 37° C. in a humid atmosphere in the presence of 5% CO2. The MDA-MB-134 cells were grown in Leibovitz's L-15 medium supplemented with 20% FBS and grown in CO2 free atmosphere. The breast cancer cells were trypsinized (0.02% Trypsin—EDTA) and grown in their respective media (phenol red free) supplemented with 10% CSS (Charcoal stripped serum) for a week. Subsequently the cells were trypsinized again and plated onto an 8 chambered slide system (Lab Tek II) at a confluence of 60–70% per chamber. The next day treatments were performed on the breast cancer cells using their respective media(phenol red free), supplemented with 1% CSS. The MDA-MB-134 VI cells were grown in phenol red containing medium, but with the same serum conditions as the other breast cancer cells.
(§2) Terminal deoxynucleotidly transferase mediated dUTP nick end labeling (TUNEL) assay. Nicks of the fragmented DNA are labeled at their 3-OH ends. The fluorescein-labeled dUTP is incorporated at the 3-OH ends by using the enzyme terminal deoxynucleotidyl transferase. After the assigned period of treatment the chambers were dismantled as per the manufacturer's instructions and the TUNEL assay (Apoptosis detection system, Fluorescein- Promega) was performed as per the manufacturer's instructions. The slide was examined under a FITC filter using an Olympus IX 70 microscope system.

Another experiment deals with BT-474 cells. Kind of experiment: TUNEL assay, BT-474. In kind it is cell-based, human. As to conditions: 4-OH-Tamoxifen 1 μM, 24 hours. On the procedure:
as §1, §2

The next experiment concerns MCF-7 cells. Kind of experiment: TUNEL assay, MCF-7. As to conditions: 4-OH-Tamoxifen 1 μM, 24 hours. Format: cell-based, human. On the procedure: as §1
Terminal deoxynucleotidly transferase mediated dUTP nick end labeling (TUNEL) assay. Nicks of the fragmented DNA are labeled at their 3-OH ends. The fluorescein-labeled dUTP is incorporated at the 3-OH ends by using the enzyme terminal deoxynucleotidyl transferase. […]

Experiment [3] has as its system T47D human breast cancer cells. Kind of experiment: Cell proliferation assay, cell counting. As to conditions: for proliferation of T47D cells relative to untreated control cultures: FIGS. 5A-B; for shape of dose response curve, T-47D cell number: FIG. 4. Format: cell-based. On the procedure: Cell proliferation assays. hPRLA was tested for its ability to inhibit breast cancer cell proliferation in tissue culture. The human breast cancer cells were grown in corresponding culture media according to ATCC recommendations. Cells were maintained at 37° C. in a humidified atmosphere of 5% CO2 in air. The assay conditions were essentially as described by Ginsburg and Vonderharr (1995, Cancer Res. 55:2591–2595). For individual growth experiments, cells were plated in 12 well culture plates at a density of approximately 2×10^4 /ml, 1 ml/ well. Cells were then allowed to attach for one day (T-47D, MCF-7, HTB19, and HTB20 cells, except for HTB 123, which is a suspension cells), then the overlying media was removed and changed to serum-free conditions with media containing ITS^+ (insulin-transferring-selenium-BSA-linoleic acid culture supplement; Collaborative Research Bedford, Mass.). Varying concentrations of hPRL alone or in combination with hPRLA were introduced. After an additional three days in culture, cells were harvested after brief trypsinization and counted in a cell counter.

The test system of experiment [4] is tyrosine phosphorylation of STAT protein. As to conditions: literature; cited from earlier work.
In experiment [5] the test system is hGH receptor on T-47D and HTB123 cells. Kind of experiment: Competitive radioreceptor binding assay. Also noted: species or system human. As to conditions: T-47D and HTB123 compared to leukemia, lymphoma and retinoblastoma cells.
The test system of experiment [6] is tyrosine phosphorylation of STAT5 protein in T-47D human breast cancer cells. Kind of experiment: hPRL induction of tyrosine phosphorylation of STAT5 protein (Example 8). In kind it is cell-based. As to conditions: T-47D cells, 5 nM of hormone alone, Western blot FIG. 3. An excerpt: Assay of hPRL induction of tyrosine phosphorylation of STAT5 protein. […] Tyrosyl phosphorylation of STAT 5 is a receptor mediated event and is thought to be an important step in ligand-induced signal transduction (Wakao et al., 1994, EMBO J. 13: 2182–2191; Kazansky et al., 1995, Mol. Endocrinol. 9:1598–1609; Waxman et al., 1995, J. Biol. Chem. 270:13262–13270). This assay was used to evaluate the ability of hPRL and hPRLA to inhibit induction of STAT 5 phosphorylation by wild type PRL.
Briefly, human breast cancer cells were plated in 12-well plates. After pre-incubation in serum-free DMEM for 2–3 hours, the cells were exposed to various concentration of hPRL and hPRLA in serum-free DMEM. The cells were incubated for 15 min at 37° C., washed once with PBS, and lysed in 300 μl lysis buffer (50 mM Tris-HCl, pH 6.8, 1% SDS, 1% β-mecaptoethanol, 0.1M DTT, 5% Sucrose, 100 uM Sodium Orthovanadate, and 0.6% bromphenol blue). Thirty microliters of cell lysates were subjected to 4–12.5% SDS-PAGE and immunoblot analysis using horse radish peroxidase (HRP)-conjugated anti-phosphotyrosine antibody PY20 and ECL reagent kit (Amersham, Ill.). Blots were then exposed to X-ray films and developed using standard procedures (Kodak, Rochester, N.Y.). This assay has been described in Chen et al., 1994, J. Biol. Chem. 269: 15892–15897; Chen et al., 1995, Endocrinol. 136:660–667; Wang et al., 1994, Proc. Natl. Acad. Sci. U.S.A. 91:1391–1395; Chen et al., 1995, Mol. Endocrinol. 9(3):292–302; Harding et al., 1996, J. Biol. Chem. 271(12):6708–6712.

For experiment [7], the system named is T47D human breast cancer cells. Kind of experiment: Mixed cell culture assay with transfected L cells, T47D. Format: cell-based. To be noted: co-culture with transfected L cells, 24 h to five days. An excerpt: For certain experiments, a mixed cell culture assay was used, diagramatically represented in FIG. 6. In this assay, breast cancer cells were co-cultured with expressor cells which had been transfected with nucleic acid encoding PRL or a PRL variant and expressing those recombinant proteins. By varying the number of expressor cells, the amount of PRL or PRL variant present in the mixed cell culture was increased or decreased. […] In certain wells, which served as a control, no expresser cells were added. Then, increasing numbers of expresser cells (transfected L cells expressing either HPRL (L-PRL) or hPRLA (L-PRLA)) were added to breast cancer cell-containing wells to create mixed cultures. The same numbers of expressor cells were cultured in parallel (without T47D cells) to serve as controls. After culturing under standard conditions for a period of time, the number of cells present in the wells was counted, and the number of L cells in the corresponding control culture was subtracted. The resulting number could then be compared to the number of T47D cells in the T47D control culture to evaluate the effects of the recombinant product on breast cancer cell proliferation.

For the molecule `CC/C(=C(\c1ccc(O)cc1)c1ccc(OCCN(C)C)cc1)c1ccccc1` [4-OH-Tamoxifen, reference compound], the “inhibition of cell proliferation” value in experiment [1] (100 nM 4-OH-Tamoxifen alone) is given as 15%. The “maximum inhibition by a single dose” value in [1] (4-OH-Tamoxifen at 500 nM, T47-D) is recorded as “approximately 15 % of control”. Besides, the induction of apoptosis entry in [2] (4-OH-Tamoxifen 1 μM, 24 hours) was “did not induce apoptosis”; with BT-474 cells, “did not induce apoptosis”; in the experiment with MCF-7 cells, “did not induce apoptosis”.

For the molecule `CC/C(=C(\c1ccccc1)c1ccc(OCCN(C)C)cc1)c1ccccc1` [tamoxifen, reference compound], the “proliferation of T47D cells relative to untreated control cultures” value in experiment [3] is “comparable inhibitory effect”.

For the molecule estrogen [reference compound], the “proliferation of T47D cells relative to untreated control cultures” value in experiment [3] is reported as “increased proliferation”.

Turning to “hGH-G120R: GH antagonist, variant of human GH with glycine at position 120 substituted with arginine”, in [4], the “effect on GH induction of STAT protein phosphorylation” value is on record as “inhibit GH induction of STAT protein phosphorylation in a dose dependent manner”.

With hGH: human growth hormone, the “shape of dose response curve, T-47D cell number” value in experiment [3] was “bell shaped dose response curves”. Further, the “hGH receptor specific binding” value in experiment [5] is given as “minimum”.

B1: hPRL: human prolactin, recombinant from transfected mouse L cells or purified from NIH (protein)
chain: LPICPGGAARCQVTLRDLFDRAVVLSHYIHNLSSEMFSEFDKRYTHGRGFITKAINSCHTSSLATPEDKEQAQQMNQKDFLSLIVSILRSWNEPLYHLVTEVRGMQEAPEAILSKAVEIEEQTKRLLEGMELIVSQVHPETKENEIYPVWSGLPSLQMADEESRLSAYYNLLHCLRRDSHKIDNYLKLLKCRIIHNNNC
As for B1, in [6], the “induction of phosphorylation of STAT5 proteins” value is on record as “induced”. In addition, in [3], the “shape of dose response curve, T-47D cell number” value was “bell shaped dose response curves” and the “proliferation of T47D cells relative to untreated control cultures” value is listed as “increased proliferation”. The “T47D proliferation relative to untreated T47D cell cultures” value in experiment [7] was “increase in T47D proliferation”. In addition, the “maximum response in the presence of E2 compared to hPRL alone” value in [1] (hPRL 100 ng/ml with 10 nM E2) was “more than tripled”. For the same molecule, the “maximum stimulation over basal levels” value in [1] (hPRL 250 ng/ml, single dose, four-day incubation) was “approximately 20%”. The “effect on T47-D proliferation, dose response” value in [1] (single dose, four-day incubation) is “stimulated T47-D proliferation in a dose dependent manner”. Besides, in experiment [2] (4:1 ratio (500 ng/ml hPRL, 125 ng/ml hPRL-G129R)), the “reversal of G129R-induced DNA fragmentation” value is recorded as “competitively reverse the DNA fragmentation”.
